The target in experiment [1] is T1, BTK (Homo sapiens, UniProt Q06187). Kind of experiment: Phase I BTK occupancy (free BTK ELISA) in PBMCs of healthy volunteers. Format: in vivo. More on the design: endogenous in cells; host or cells: PBMCs of healthy volunteers. As to the method:
PK/PD data from 24 subjects who had received the drug BID among the 90 total subjects who participated in the MAD study were analyzed. Blood was collected on day 1 before drug administration and 1 h, 2 h, 4 h, and 12 h after drug administration. Blood samples were taken 3 days and 2 h after drug administration. Additional blood samples were taken on day 6 (5, 20, and 60 mg/kg), day 15 (40 mg/kg), day 17, and day 21 for PK/PD analysis.
The BTK occupancy assay and analysis of BTK phosphorylation inhibition were performed as described previously. Briefly, isolated PBMCs were lysed with RIPA buffer (R0278, Sigma-Aldrich) containing 1 × protease/phosphatase inhibitor (1861281, Thermo Fisher Scientific) and EDTA (1861274, Thermo Fisher Scientific). The supernatants were collected by 10 min at 14,000 × g in microcentrifuge at 4 °C and biotinylated probe was added to bind free BTK for 1 h. Rabbit anti-BTK Ab (1:5000 in 1% BSA) bound the captured BTK/probe complex, and was detected with […] antibody conjugated with HRP then ultra-TMB solution was added to each well for the free BTK analysis. Analysis of free and total BTK levels for the phase I study was conducted by Cambridge Biomedical Inc. (MA, USA). BTK occupancy was calculated by taking the free BTK and total BTK results from a given donor and used the following formula: %BTKoccupancy=100%-FreeBTK/totalBTK×100.
(In general: An ELISA detects its analyte on a solid surface through an enzyme-linked reagent.)

The target in experiment [2] is T1, BTK. Kind of experiment: hBTK Lanthascreen biochemical activity. For orientation: In TR-FRET formats the signal depends on donor and acceptor labels being close together.
Experiment [3] has as its system STAT5 (Y694). Kind of experiment: IL-2-stimulated STAT5 phosphorylation (JAK3 signaling) in T and NK cells. Format: cell-based, human. As to conditions: 30 μM. As to the method:
The analysis measured 94 intracellular signaling nodes (81 phosphorylation sites, 10 total protein levels and 3 methylation/acetylation sites) in stimulated immune cells, including B cells (IgM plus CD40L), CD4 + and CD8 + T cells (IL-2; CD3 plus CD28), monocytes (M-CSF), NK cells (IL-2), and granulocytes (LPS).

Experiment [4] deals with T2, JAK3 (Homo sapiens, UniProt P52333).
T2 sequence (P52333 1-1124): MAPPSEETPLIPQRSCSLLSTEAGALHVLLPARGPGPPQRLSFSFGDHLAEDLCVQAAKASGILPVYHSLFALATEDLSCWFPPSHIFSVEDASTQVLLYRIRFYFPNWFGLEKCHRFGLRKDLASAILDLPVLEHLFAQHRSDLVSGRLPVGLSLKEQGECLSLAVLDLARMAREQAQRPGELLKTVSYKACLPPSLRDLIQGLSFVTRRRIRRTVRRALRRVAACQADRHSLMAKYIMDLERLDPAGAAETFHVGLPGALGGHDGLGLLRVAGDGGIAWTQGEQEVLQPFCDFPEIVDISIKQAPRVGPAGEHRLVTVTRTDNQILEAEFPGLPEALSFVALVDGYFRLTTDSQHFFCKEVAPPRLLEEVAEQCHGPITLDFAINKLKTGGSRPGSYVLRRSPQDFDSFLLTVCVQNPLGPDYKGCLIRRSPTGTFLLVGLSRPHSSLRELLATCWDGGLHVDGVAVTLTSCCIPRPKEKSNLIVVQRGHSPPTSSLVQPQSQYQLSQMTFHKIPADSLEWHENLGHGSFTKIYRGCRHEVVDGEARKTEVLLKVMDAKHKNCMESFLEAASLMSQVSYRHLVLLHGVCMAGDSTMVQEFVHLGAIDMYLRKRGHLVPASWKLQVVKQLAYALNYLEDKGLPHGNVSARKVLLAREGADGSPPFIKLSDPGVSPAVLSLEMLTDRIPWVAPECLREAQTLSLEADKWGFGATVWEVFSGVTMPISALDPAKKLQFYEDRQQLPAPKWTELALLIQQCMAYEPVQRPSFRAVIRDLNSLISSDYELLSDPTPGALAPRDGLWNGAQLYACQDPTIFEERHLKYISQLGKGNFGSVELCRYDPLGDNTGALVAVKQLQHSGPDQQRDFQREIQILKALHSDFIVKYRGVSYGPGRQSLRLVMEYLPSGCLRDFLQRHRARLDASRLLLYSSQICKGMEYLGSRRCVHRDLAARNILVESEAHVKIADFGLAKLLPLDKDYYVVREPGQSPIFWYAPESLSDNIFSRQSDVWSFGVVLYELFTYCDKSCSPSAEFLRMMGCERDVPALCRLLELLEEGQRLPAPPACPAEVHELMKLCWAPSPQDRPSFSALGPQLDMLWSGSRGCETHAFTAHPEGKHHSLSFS
Kind of experiment: Kinase selectivity biochemical assay, JAK3.

Experiment [5] relates to CIA model rats. The experiment can be described thus: Collagen-induced arthritis (CIA) model, clinical score and body weight. Format: in vivo, rat. As to conditions: for Arthritis clinical score: day 8, mean ± SEM. As to the method:
All animals were obtained from Charles River Japan (150 ± 10 g, 6 weeks old). The experimental protocols were approved by the animal care and use committee of the Hanmi Research Center and performed in accordance with approved guidelines. Briefly, 7-week-old male Lewis rats were immunized with a collagen emulsion of equal volumes of IFA ([…], Sigma-Aldrich) and bovine type II collagen (total volume, 0.6 mL) via intradermal injection into the base of the tail. Seven days later, the rats were given a booster immunization of 0.3 ml of collagen emulsion in the same manner. The incidence of arthritis was 79% on day 6 after booster immunization, and the rats were randomized into 4 groups when the average clinical score of each animal was 2.8 (on a scale of 16) (n = 20 in each drug-administered group, n = 8 in the CIA control group). […] The arthritis score was determined by grading each paw from 0 to 4 based on erythema, swelling, and flexion of the joint. Body weight was also measured three times per week.

SMILES strings stand for the structures.

T1 sequence (Q06187 whole entry): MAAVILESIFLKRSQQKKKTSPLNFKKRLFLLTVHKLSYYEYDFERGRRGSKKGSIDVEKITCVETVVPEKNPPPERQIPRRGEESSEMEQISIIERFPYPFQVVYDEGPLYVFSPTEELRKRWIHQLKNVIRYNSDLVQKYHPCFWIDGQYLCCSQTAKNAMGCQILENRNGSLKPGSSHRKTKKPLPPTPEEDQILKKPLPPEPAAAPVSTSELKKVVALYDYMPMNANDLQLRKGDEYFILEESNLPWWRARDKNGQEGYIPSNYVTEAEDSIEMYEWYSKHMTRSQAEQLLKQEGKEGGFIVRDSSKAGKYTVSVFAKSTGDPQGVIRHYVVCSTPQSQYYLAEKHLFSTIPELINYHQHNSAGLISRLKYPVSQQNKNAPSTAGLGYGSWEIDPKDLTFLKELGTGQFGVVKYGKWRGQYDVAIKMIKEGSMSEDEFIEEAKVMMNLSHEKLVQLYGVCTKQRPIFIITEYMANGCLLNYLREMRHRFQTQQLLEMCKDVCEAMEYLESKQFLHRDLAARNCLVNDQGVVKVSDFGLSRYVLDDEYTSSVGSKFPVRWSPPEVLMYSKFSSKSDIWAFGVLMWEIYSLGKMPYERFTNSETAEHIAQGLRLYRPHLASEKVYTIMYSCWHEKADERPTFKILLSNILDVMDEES

What is called inhibition is the relative decrease from the control value, in per cent. Higher therefore signals a response far below the control. In general, IC50 refers to the concentration that gives 50% inhibition. As to `C=CC(=O)Nc1cccc(Oc2nc(Nc3ccc(N4CCN(C)CC4)cc3)nc3ccoc23)c1` [Poseltinib], the “time of maximum BTK inhibition” value in experiment [1] (40 mg) is recorded as 12 h; in experiment [1] (60 mg), 4 h. Further, the BTK occupancy entry in experiment [1] (40 mg dosing, maintained up to 48 h after the first dose) is listed as “More than 80%”. Also, the BTK inhibition in experiment [1] (4 h after the first dose, doses of 40 mg and higher) is on record as > 90%. The inhibition at 20 mg in experiment [1] (human, steady state (120 h), doses of 20 mg bid and higher) was > 90%. This molecule also displayed an IC50 in experiment [2] of 6 nM. Further, the “IL-2-stimulated phosphorylation of STAT5 (Y694)” value in experiment [3] (CD4 + T cells), in experiment [3] (CD8 + T cells) and in experiment [3] (NK cells) was “inhibited” throughout. The “selectivity toward BTK over JAK3” value in experiment [4] came out at 7.5 ×. For the same molecule, the Arthritis clinical score in experiment [5] (0.3 mg/kg oral once daily) was 8.5 ± 0.5; in experiment [5] (1 mg/kg oral once daily) it was 6.7 ± 0.6; in experiment [5] (3 mg/kg oral once daily), 2.7 ± 0.4. The “disease-induced body weight loss” value in experiment [5] (3 mg/kg) is given as “prevented weight loss”.

The record behind these values is publication PMC8455565 (Scientific Reports, 2021).
